In patent US20190078143A1, “METHOD FOR TREATING NEURODEVELOPMENTAL DISORDERS” (New York University, priority 2017, published 2019):
“Also recorded” adds a separate entry of the source.

Legend:
[1] = system: cortical patches (SATB2) in primary somatosensory cortex; experiment: Cortical patches by SATB2 immunohistochemistry in adult MIA offspring brains; format: in vivo, mouse; conditions: offspring of poly(I:C)-injected mothers pre-treated with vancomycin
Procedure: (§1) Mice were mated overnight and females were checked daily for the presence of seminal plugs, noted as embryonic day 0.5. On E12.5, pregnant female mice were weighed and injected with a single dose (20 mg/kg; i.p.) of poly(I:C) (Sigma Aldrich) or PBS vehicle. Each dam was returned to its cage and left undisturbed until the birth of its litter. All pups remained with the mother until weaning on postnatal day 21-28 (P21-P28), at which time mice were group housed at a maximum of 5 per cage with same-sex littermates.
For co-housing experiments, age-matched SFB-absent mice (from Jackson Laboratory) were co-housed with SFB-present mice (from Taconic Biosciences) in sterilized cages for two weeks at a ratio of 2:3, with unrestricted access to food and water. For SFB-gavaging experiments, four fecal pellets of SFB mono-colonized mice (provided by Dan Littman) were dissolved in 20 ml sterile PBS and filtered through a 100 μm cell strainer. […]
Adult male mice were perfused and fixed with 4% paraformaldehyde in PBS for overnight at 4° C. […] The cortical malformation images were analyzed using Image J software. […]
Cortical patches were identified as cortical regions devoid of SATB2 expression. The size of the cortical patches in the S1 was calculated using Zen software (Carl Zeiss). […] SATB2 positive cells were quantified manually.

[2] = system: segmented filamentous bacteria (SFB); experiment: 16S rRNA qPCR of SFB levels in mouse fecal samples; format: in vivo; conditions: B6 mice before/after vancomycin treatment
Procedure: (§2) For co-housing experiments, age-matched SFB-absent mice (from Jackson Laboratory) were co-housed with SFB-present mice (from Taconic Biosciences) in sterilized cages for two weeks at a ratio of 2:3, with unrestricted access to food and water. For SFB-gavaging experiments, four fecal pellets of SFB mono-colonized mice (provided by Dan Littman) were dissolved in 20 ml sterile PBS and filtered through a 100 μm cell strainer. 200 μl of fecal suspensions were gavaged via oral route to 4 week-old female Jackson mice. Control mice were gavaged with PBS. The SFB colonization was tested on day 7 following co-housing or SFB-gavaging. For ablation of intestinal bacteria, Taconic-derived female mice were orally gavaged with vancomycin hydrochloride (Fisher) (2.5 mg/kg) every two days, starting 7 days prior to breeding. Mouse fecal pellets were collected and stored at −80° C. before and after vancomycin treatments.
Bacterial genomic DNA was isolated from the fecal pellets of mice with phenol-chloroform extraction. qPCR was performed to quantify relative abundance of SFB, human commensal bacteria or total bacteria using group specific 16S rDNA primers (Table 3, FIG. 16). Undetected qPCR values from non-colonized samples were replaced with a Ct value of 40 for the purpose of comparison.

[3] = system: segmented filamentous bacteria (SFB); conditions: commensal bacteria in laboratory mice, general statement; cited from earlier work
MIA offspring = experiment: Behavioral assays (USV, marble burying, open field, three-chamber sociability) in offspring of poly(I:C)-injected dams; format: in vivo, mouse; conditions: poly(I:C)-injected mothers pre-treated with vancomycin, oral gavage every two days from 7 days before breeding
Procedure: as §1, with “littermates. […]” for “littermates.”
On P9, both male and female offspring mice were removed from the nest and habituated to the testing room for 30 min. […] Ultrasonic vocalizations (USVs) were detected for 3 min using an UltraSoundGateCM16/CMPA microphone (AviSoft) in the sound attenuation chamber under stable temperature and light control, and recorded with SAS Prolab software (AviSoft). USVs were measured between 33-125 kHz using Ultravox software (Noldus Information Technology, USA). Due to the unreliability of automated USV scoring, all pup USV calls were counted manually and plotted on the y-axis. […]
8-12-week-old male mice were tested for social behavior using the three-chamber social approach paradigm. […] Experimental mice were given 10 min to explore both chambers and measured for approach behavior as interaction time (i.e. sniffing, approach) with targets in each chamber (within 2 cm). […]

IL-17a = experiment: Maternal plasma IL-17a ELISA after poly(I:C) at E12.5; format: in vivo, mouse; conditions: poly(I:C)-injected pregnant dams, 48 hrs after poly(I:C) at E12.5, compared to control group
Procedure: as §1
as §2, with “For ablation of intestinal bacteria, Taconic-derived female mice were orally gavaged with vancomycin hydrochloride (Fisher) (2.5 mg/kg) every two days, starting 7 days prior to breeding. Mouse fecal pellets were collected and stored at −80° C. before and after vancomycin treatments.” left out
IL-17a, TNF-α, IFN-β, IL-1β and IL-23 levels were measured according to the manufacturer's protocol (BioLegend). IL-6 and IFN-γ levels were measured according to the manufacturer's protocol (eBioscience).

[4] = system: Th17 cells in the small intestine; experiment: Flow cytometry of ileal CD4+ T cells for IL-17a and RORγt in poly(I:C)-treated dams; format: in vivo, mouse; conditions: poly(I:C)-injected pregnant dams, E14.5, compared to control group
Procedure: as §2
For mononuclear cell isolations, both mesenteric fat tissues and Peyer's patches were carefully removed from intestinal tissues. […]
Mononuclear cells were incubated with or without 50 ng/ml phorbol myristate acetate (PMA) (Sigma) and 500 ng/ml ionomycin (Sigma) in the presence of GolgiStop (BD) in complete T cell media at 37° C. for 5 h. […] All data were re-analyzed using FlowJo (Tree Star).

For `CN[C@H](CC(C)C)C(=O)N[C@H]1C(=O)N[C@@H](CC(N)=O)C(=O)N[C@H]2C(=O)N[C@H]3C(=O)N[C@H](C(=O)N[C@H](C(=O)O)c4cc(O)cc(O)c4-c4cc3ccc4O)[C@H](O)c3ccc(c(Cl)c3)Oc3cc2cc(c3O[C@@H]2O[C@H](CO)[C@@H](O)[C@H](O)[C@H]2O[C@H]2C[C@](C)(N)[C@H](O)[C@H](C)O2)Oc2ccc(cc2Cl)[C@H]1O` [vancomycin], the “cortical patches in adult offspring” value [1] is given as “failed to develop cortical patches”, the “intestinal colonization by SFB (qPCR of fecal samples)” value [2] is given as “severely reduced” and the “susceptibility of SFB to vancomycin” value [3] is given as “susceptible”. The “development of behavioral abnormalities in MIA offspring (USV, marble burying, open field center time, % interaction)” value (MIA offspring) was “prevented induction of behavioral abnormalities; also recorded: prevented development of all four behavioral abnormalities”, the “levels of IL-17a in the maternal plasma” value (IL-17a) was “reduction in the levels of IL-17a” and the “proportion of Th17 cells in the small intestine” value [4] was “decrease in the proportion of Th17 cells”.
